# From patent US10723727B2, “Tubulysin analogs and methods for their preparation” (priority 2016, dated 2020)
# Where two headings read alike, the source gives them in different places.
# Assays:
# [1] = system: N87 (gastric cancer) cells; test: In vitro cell assay (MTS cell viability), N87; type: cell-based; conditions: free compounds, 96 hours after treatment
# Protocol: (§1) In Vitro Cell Assay Procedure
# (§2) Target expressing (BT474 (breast cancer), N87 (gastric cancer), HCC1954 (breast cancer), MDA-MB-361-DYT2 (breast cancer)) or non-expressing (HT-29) cells were seeded in 96-well cell culture plates for 24 hours before treatment. Cells were treated with 3-fold serially diluted antibody-drug conjugates or free compounds (i. e. no antibody conjugated to the drug) in duplicate at 10 concentrations. Cell viability was determined by CellTiter 96® AQueous One Solution Cell Proliferation MTS Assay (Promega, Madison Wis.) 96 hours after treatment. Relative cell viability was determined as percentage of untreated control. IC50 values were calculated using a four parameter logistic model #203 with XLfit v4. 2 (IDBS, Guildford, Surry, UK).
# [2] = system: MDA-MB-361-DYT2 (breast cancer) cells; test: In vitro cell assay (MTS cell viability), MDA-MB-361-DYT2; type: cell-based; conditions: free compounds, 96 hours after treatment
# Protocol: as §1, §2
# HT-29 cells = test: In vitro cell assay (MTS cell viability), HT-29 (target non-expressing); type: cell-based; conditions: free compounds, 96 hours after treatment, read-out: HT29 IC50
# Protocol: as §1, §2
# [3] = target: T1, tubulin/RB3-stathmin-like-domain (RB3-SLD-tdm) complex (Sus scrofa, UniProt P02550+P02554); test: Tubulin Peptide-Binding Site Competition Assay (fluorescence polarization); set-up: species or system Porcine; conditions: FP competition with BODIPY-labeled vinca peptide probe; read after five hours at 22° C.; read-out: Tubulin Peptide-Binding Site Competition Assay IC50
# T1 construct: purchased Cytoskeleton, Inc. T240; host or cells: RB3-SLD was made in house in E. coli
# Protocol: Tubulin Peptide-Binding Site Competition Assay
# Tubulin binding potency was measured for payloads or cysteine-capped linker-payloads using a fluorescence polarization (FP) competition assay. The binding of a BODIPY-labeled vinca peptide probe (# B31) to a tubulin/RB3-stathmin-like-domain (RB3-SLD-tdm) complex generates a high FP signal, which can be decreased when mixing with test compounds that compete with the FP probe. The order of addition for the reagents in the FP assay was designed to pre-mix the FP probe with various concentrations of the test compound before mixing them with the tubulin/RB3-SLD-dm complex. The final assay concentrations of the probe, tubulin and RB3-SLD-dm were 3, 6, and 100 nM, respectively. IC50 for each test compound is obtained by fitting the dose-dependent FP signal change using GraphPad Prism version 5 software (La Jolla, Calif.) while Ki is converted from the IC50 using the equations described previously (Nikolovska-Coleska et al., 2004). The FP signals were measured on an Infinite M1000 (Tecan, San Jose, Calif.) using ProxiPlate-384 F Plus, Black (Perkin-Elmer, Waltham, Mass., Cat #6008260) with 15 μL of solution per well. Sample dilution and mixing were done using a Beckman Biomek XF (Brea, Calif.). Porcine tubulin was purchased from Cytoskeleton, Inc. (Denver, Colo., Cat #T240) and RB3-SLD was expressed in E. coli. and purified on Q and then Superdex75 columns. The FP assay test for each compound was run in duplicates by mixing 6 μL of solution 1 containing 2.5× test compound (2.5× serial dilution from 7.8 μM maximum concentration, 11 total concentrations) and 7.5 nM of the FP probe in 80 mM PIPES, pH 7.0, 0.02% Tween 20, 2 mM MgCl2, 1 mM EGTA and 3% DMSO with 9 μL of solution 2 containing […] porcine tubulin and 167 nM of RB3-SLD-dm peptide ([…]-[…]) on ProxiPlate-384 micro-plates.
SMILES,IC50 [1] [nM],IC50 [2] [nM],IC50 (HT-29 cells) [nM],IC50 [3] [nM],IC50 ([1]; 96 h) [nM],IC50 ([2]; 96 h) [nM],"IC50 (HT-29 cells; Homo sapiens, HT-29, 96 h) [nM]"
"CCNC(=O)O[C@H](C[C@H](C(C)C)N(C)C(=O)[C@@H](NC(=O)C1(C)CCCCN1C)[C@@H](C)CC)c1nc(C(=O)N[C@@H](Cc2ccc(N)cc2)C[C@H](C)C(=O)O)cs1 (stereo in doubt) [#B24, (2S,4R)-5-(4-aminophenyl)-4-{[(2-{(1R,3R)-3-[(N-{[(2R)-1,2-dimethylpiperidin-2-yl]carbonyl}-L-isoleucyl)(methyl)amino]-1-[(ethylcarbamoyl)oxy]-4-methylpentyl}-1,3-thiazol-4-yl)carbonyl]amino}-2-methylpentanoic acid]",1.22,1.24,1.14,,,,
"CC[C@H](C)[C@H](NC(=O)[C@@]1(C)CCCN1C)C(=O)N(C)[C@H](C[C@@H](OC(C)=O)c1nc(C(=O)N[C@@H](Cc2ccccc2)C[C@H](C)C(=O)O)cs1)C(C)C [#B8, 1,2-dimethyl-D-prolyl-N-[(1R,3R)-1-(acetyloxy)-1-(4-{[(2R,4S)-4-carboxy-1-phenylpentan-2-yl]carbamoyl}-1,3-thiazol-2-yl)-4-methylpentan-3-yl]-N-methyl-L-isoleucinamide]",,,,1.8,0.104,0.063,
"CCOP(=O)(OCC)[C@@H](C)C[C@H](Cc1ccc(N)cc1)NC(=O)c1csc([C@@H](C[C@H](C(C)C)N(C)C(=O)[C@@H](NC(=O)[C@H]2CCCCN2C)[C@@H](C)CC)OC(C)=O)n1 [#B11, (1R,3R)-1-(4-{[(2S,4S)-1-(4-aminophenyl)-4-(diethoxyphosphoryl)pentan-2-yl]carbamoyl}-1,3-thiazol-2-yl)-4-methyl-3-[methyl(N-{[(2R)-1-methylpiperidin-2-yl]carbonyl}-L-isoleucyl)amino]pentyl Acetate]",,,,,0.909,0.609,0.954
"CCOC(=O)[C@@H](C)C[C@H](Cc1ccccc1)NC(=O)c1csc([C@@H](C[C@H](C(C)C)N(C)C(=O)[C@@H](NC(=O)[C@@]2(C)CCCN2C)[C@@H](C)CC)NC(C)=O)n1 [#B18, 1,2-dimethyl-D-prolyl-N-[(1R,3R)-1-(acetylamino)-1-(4-{[(2R,4S)-5-ethoxy-4-methyl-5-oxo-1-phenylpentan-2-yl]carbamoyl}-1,3-thiazol-2-yl)-4-methylpentan-3-yl]-N-methyl-L-isoleucinamide]",,,,,> 100,> 100,> 100
"CC[C@H](C)[C@H](NC(=O)[C@@]1(C)CCCN1C)C(=O)N(C)[C@H](C[C@@H](NC(C)=O)c1nc(C(=O)N[C@@H](Cc2ccccc2)C[C@H](C)C(=O)O)cs1)C(C)C [#B19, 1,2-dimethyl-D-prolyl-N-[(1R,3R)-1-(acetylamino)-1-(4-{[(2R,4S)-4-carboxy-1-phenylpentan-2-yl]carbamoyl}-1,3-thiazol-2-yl)-4-methylpentan-3-yl]-N-methyl-L-isoleucinamide]",,,,,37.7,17.4,14.6
"CC[C@H](C)[C@H](NC(=O)[C@@]1(C)CCCN1C)C(=O)N(C)[C@H](C[C@@H](NC(C)=O)c1nc(C(=O)N[C@@H](Cc2ccccc2)C[C@H](C)C(=O)OC)cs1)C(C)C [#B20, 1,2-dimethyl-D-prolyl-N-[(1R,3R)-1-(acetylamino)-1-(4-{[(2R,4S)-5-methoxy-4-methyl-5-oxo-1-phenylpentan-2-yl]carbamoyl}-1,3-thiazol-2-yl)-4-methylpentan-3-yl]-N-methyl-L-isoleucinamide]",,,,,6.11,2.58,3.37
"CCNC(=O)O[C@H](C[C@H](C(C)C)N(C)C(=O)[C@@H](NC(=O)[C@@]1(C)CCCN1C)[C@@H](C)CC)c1nc(C(=O)N[C@H](C(=O)OC)C(C)O)cs1 (stereo partly drawn) [#B22, 1,2-dimethyl-D-prolyl-N-{(1R,3R)-1-[(ethylcarbamoyl)oxy]-1-(4-{[(2S)-3-hydroxy-1-methoxy-1-oxobutan-2-yl]carbamoyl}-1,3-thiazol-2-yl)-4-methylpentan-3-yl]-N-methyl-L-isoleucinamide]",,,,,12.1,11.2,14.4
"CC[C@H](C)[C@H](NC(=O)[C@]1(C)CCCCN1C)C(=O)N(C)[C@H](C[C@@H](OC(C)=O)c1nc(C(=O)N[C@@H](Cc2ccc(N)cc2)C[C@H](C)C(=O)O)cs1)C(C)C [#B23, (2S,4R)-4-{[(2-{(1R,3R)-1-(acetyloxy)-3-[(N-{[(2S)-1,2-dimethylpiperidin-2-yl]carbonyl}-L-isoleucyl)(methyl)amino]-4-methylpentyl}-1,3-thiazol-4-yl)carbonyl]amino}-5-(4-aminophenyl)-2-methylpentanoic acid]",,,,,2.71,2.02,2.33
"CC[C@H](C)[C@H](NC(=O)[C@H]1CCCCN1C)C(=O)N(C)[C@H](C[C@@H](OC(C)=O)c1nc(C(=O)N[C@H](CNS(C)(=O)=O)Cc2ccccc2)cs1)C(C)C [#B36, (1R,3R)-4-methyl-3-[methyl(N-{[(2R)-1-methylpiperidin-2-yl]carbonyl}-L-isoleucyl)amino]-1-[4-({(2S)-1-[(methylsulfonyl)amino]-3-phenylpropan-2-yl}carbamoyl)-1,3-thiazol-2-yl]pentyl acetate]",,,,1.7,0.459,0.255,
"CC[C@H](C)[C@H](NC(=O)[C@H]1CCCCN1C)C(=O)N(C)[C@H](C[C@@H](OC(C)=O)c1nc(C(=O)NC(Cc2ccccc2)c2nc(C(=O)O)cs2)cs1)C(C)C (stereo partly drawn) [#B37, 2-(1-{[(2-{(1R,3R)-1-(acetyloxy)-4-methyl-3-[methyl(N-{[(2R)-1-methylpiperidin-2-yl]carbonyl}-L-isoleucyl)amino]pentyl}-1,3-thiazol-4-yl)carbonyl]amino}-2-phenylethyl)-1,3-thiazole-4-carboxylic acid]",,,,1.3,228,240,
"CC[C@H](C)[C@H](NC(=O)[C@H]1CCCCN1C)C(=O)N(C)[C@H](C[C@@H](OC(C)=O)c1nc(C(=O)NCC2OCCc3ccccc32)cs1)C(C)C (stereo partly drawn) [#B38, (1R,3R)-1-{4-[(3,4-dihydro-1H-isochromen-1-ylmethyl)carbamoyl]-1,3-thiazol-2-yl}-4-methyl-3-[methyl(N-{[(2R)-1-methylpiperidin-2-yl]carbonyl}-L-isoleucyl)amino]pentyl acetate]",,,,4.8,3.06,0.925,
"CCOC(=O)c1ncoc1[C@H](Cc1ccccc1)NC(=O)c1csc([C@@H](C[C@H](C(C)C)N(C)C(=O)[C@@H](NC(=O)[C@H]2CCCCN2C)[C@@H](C)CC)OC(C)=O)n1 [#B39, ethyl 5-[(1S)-1-{[(2-{(1R,3R)-1-(acetyloxy)-4-methyl-3-[methyl(N-{[(2R)-1-methylpiperidin-2-yl]carbonyl}-L-isoleucyl)amino]pentyl}-1,3-thiazol-4-yl)carbonyl]amino}-2-phenylethyl]-1,3-oxazole-4-carboxylate]",,,,4.7,1.39,0.602,
"CC[C@H](C)[C@H](NC(=O)[C@H]1CCCCN1C)C(=O)N(C)[C@H](C[C@@H](OC(C)=O)c1nc(C(=O)N[C@@H](Cc2ccccc2)CN2CCOCC2)cs1)C(C)C [#B40, (1R,3R)-4-methyl-3-[methyl(N-{[(2R)-1-methylpiperidin-2-yl]carbonyl}-L-isoleucyl)amino]-1-[4-({(2S)-1-(morpholin-4-yl)-3-phenylpropan-2-yl]carbamoyl}-1,3-thiazol-2-yl)pentyl acetate]",,,,2.4,0.485,0.308,
"CC[C@H](C)[C@H](NC(=O)[C@H]1CCCCN1C)C(=O)N(C)[C@H](C[C@@H](OC(C)=O)c1nc(C(=O)NCCn2ccccc2=O)cs1)C(C)C [#B41, (1R,3R)-4-methyl-3-[methyl(N-{[(2R)-1-methylpiperidin-2-yl]carbonyl}-L-isoleucyl)amino]-1-[4-{[2-(2-oxopyridin-1(2H)-yl)ethyl]carbamoyl}-1,3-thiazol-2-yl)pentyl acetate]",,,,4.41,2,1.44,
